For 15 compounds, IC50 results are on record in patent publication US20250215006A1, “TRICYCLIC COMPOUNDS AS INHIBITORS OF WRN” (Incyte Corporation, priority 2023, published 2025).

pIC50: −log10 of the molar value. Some results are limits rather than exact numbers.

In test [1] the target is T1, WRN (Homo sapiens, UniProt Q14191).
T1 construct: A His-tagged construct of WRN (AA S2-S1235) was produced and used for the ATPase assay; His; made in house; host or cells: Sf9 insect cells (baculovirus, pFastBac1)
Nature of the test: WRN ATPase activity assay (ADP-Glo). The settings on record: 1-hr pre-incubation with enzyme; 100 μM ATP, 25 nM forked dsDNA, 1 nM WRN; geometric mean of at least 2 replicates. It is filed as biochemical. The protocol: Compounds of the Examples were tested for WRN ATPase activity. WRN ATPase activity catalyzes ATP hydrolysis to produce ADP and phosphate. DNA encoding the target protein, 6×HIS-TEV-WRN-517-945, was produced, cloned and transfected as detailed in Example D. The amount of ADP produced was measured using ADP-Glo™ Kinase Assay kit from Promega Corporation in a Greiner white regular volume 384 wells assay plate (Greiner #781075). Data was normalized to a standard curve generated using various ADP concentrations and the corresponding luminescent signal intensities at each concentration. The assay conditions were optimized for enzyme concentration (WRN), substrate concentrations (ATP & dsDNA), and the linearity of the ATPase reaction, in the following assay buffer: 50 mM Tris-HCl, pH-7.5, 2 mM MgCl2, 50 mM NaCl, 1 mM EGTA, 0.01% P-20, 0.05% BSA, and 2 mM DTT prepared with nuclease free water.
A serial dilution (1:3 scheme) of the compounds were prepared in neat DMSO, with 100 nL of the compounds dispensed in the 384 wells assay plate. An 1-hr pre-incubation of the compounds with enzyme was included. A His-tagged construct of WRN (AA S2-S1235) was produced and used for the ATPase assay. Maximum inhibition control wells were set up with the addition of only assay buffer, and no inhibition control wells were set up with neat DMSO without test compounds. The reaction was initiated by addition of 5 μL substrate mix (200 μM ultrapure ATP, and 50 nM dsDNA prepared in assay buffer) and incubated at 25° C. for 35 min. A forked dsDNA oligomer substrate was prepared by annealing equal amounts of oligo GPat-1 ([BHQ2][…]) and oligo GPat-2 ([…][TAM]) and was used as dsDNA substrate for WRN ATPase assay. A typical ATPase reaction consists of 25 nM forked dsDNA, 100 μM ATP, and 1 nM WRN prepared in assay buffer. The WRN ATPase reaction was stopped by the addition of 5 μL of ADP-Glo Reagent from ADP-Glo™ Kinase Assay kit and incubated for 40 min to deplete the unreacted ATP. Afterwards, 5 μL of Kinase Detection Reagent from the ADP-Glo™ Kinase Assay kit was added and incubated for 1 hr for the development of luminescence signal.
Luminesce signals were measured on BMG PHERAstar FSX using luminescence protocol. Data analysis was carried out using Genedata software following % of control normalization. Fitting parameters include dose response IC50, Hill slope (n), maximum inhibition (S∞), and minimum inhibition (S0). The reported IC50 values for compounds in this invention are the geometric means of at least 2 independent replicates.
On the technique in general: ADP-Glo turns the ADP formed in a reaction into a luminescent signal.

The target in test [2] is T1, WRN. Nature of the test: WRN Helicase activity assay (fluorescence DNA unwinding). The settings on record: 1-hr pre-incubation with enzyme; 100 μM ATP, 25 nM forked dsDNA, 1 nM WRN; geometric mean of at least 2 replicates. The class given is biochemical. Here is the method: Compounds of the examples were tested for WRN helicase activity. DNA encoding the target protein, 6×HIS-TEV-WRN-517-945, was produced, cloned and transfected as detailed in Example D. To determine the inhibitory properties of the compounds, a 384 wells plate-based Helicase assay was set up to measure the extent of DNA unwinding (Helicase) activity of WRN. The WRN Helicase assay was designed to measure increase in fluorescence signal using a fluorescence based, donor-quencher paired forked dsDNA oligomer substrate (custom synthesis from Sigma-Aldrich) prepared by annealing equal amounts of oligo GPat-1 ([BHQ2][…]) and oligo GPat-2 ([…][TAM]). Continuous measurement of fluorescent signal was used to optimize the buffer conditions, concentration of enzyme (WRN), concentration of substrates (ATP & dsDNA), and the linearity of the Helicase reaction. All solutions were prepared in the following assay buffer: 50 mM Tris-HCl, pH-7.5, 2 mM MgCl2, 50 mM NaCl, 1 mM EGTA, 0.01% P-20, 0.05% BSA, and 2 mM DTT prepared with nuclease free water.
A serial dilution (1:3 scheme) of the compounds was prepared in neat DMSO and 100 nL of the compounds was dispensed in the Greiner black low volume (Greiner #784076) 384 wells assay plate. An 1-hr pre-incubation of the compounds with enzyme was included. A His-tagged construct of WRN (AA S2-S1235) was produced and used for the ATPase assay. Maximum inhibition control wells were set up with the addition of only assay buffer, and no inhibition control wells were set up with neat DMSO without test compounds. The reaction was initiated by addition of 5 μL substrate mix (200 μM ultrapure ATP, and 50 nM dsDNA prepared in assay buffer) and incubated at 25° C. for 35 min. A typical Helicase reaction consists of 25 nM forked dsDNA, 100 μM ATP, and 1 nM WRN prepared in assay buffer. The WRN Helicase reaction was quenched by the addition of 5 μL ‘STOP’ solution containing 100 mM EDTA (final EDTA concentration 33.33 mM) prepared in assay buffer. The plates were read on BMG PHERAstar FSX using 540/590 module to measure an increase of fluorescence. Data analysis was carried out using the Genedata software following % of control normalization. Fitting parameters include dose response IC50, Hill slope (n), maximum inhibition (S∞), and minimum inhibition (S0). The reported IC50 values for compounds in this invention are the geometric means of at least 2 independent replicates.

T1 sequence (Q14191 2-1235): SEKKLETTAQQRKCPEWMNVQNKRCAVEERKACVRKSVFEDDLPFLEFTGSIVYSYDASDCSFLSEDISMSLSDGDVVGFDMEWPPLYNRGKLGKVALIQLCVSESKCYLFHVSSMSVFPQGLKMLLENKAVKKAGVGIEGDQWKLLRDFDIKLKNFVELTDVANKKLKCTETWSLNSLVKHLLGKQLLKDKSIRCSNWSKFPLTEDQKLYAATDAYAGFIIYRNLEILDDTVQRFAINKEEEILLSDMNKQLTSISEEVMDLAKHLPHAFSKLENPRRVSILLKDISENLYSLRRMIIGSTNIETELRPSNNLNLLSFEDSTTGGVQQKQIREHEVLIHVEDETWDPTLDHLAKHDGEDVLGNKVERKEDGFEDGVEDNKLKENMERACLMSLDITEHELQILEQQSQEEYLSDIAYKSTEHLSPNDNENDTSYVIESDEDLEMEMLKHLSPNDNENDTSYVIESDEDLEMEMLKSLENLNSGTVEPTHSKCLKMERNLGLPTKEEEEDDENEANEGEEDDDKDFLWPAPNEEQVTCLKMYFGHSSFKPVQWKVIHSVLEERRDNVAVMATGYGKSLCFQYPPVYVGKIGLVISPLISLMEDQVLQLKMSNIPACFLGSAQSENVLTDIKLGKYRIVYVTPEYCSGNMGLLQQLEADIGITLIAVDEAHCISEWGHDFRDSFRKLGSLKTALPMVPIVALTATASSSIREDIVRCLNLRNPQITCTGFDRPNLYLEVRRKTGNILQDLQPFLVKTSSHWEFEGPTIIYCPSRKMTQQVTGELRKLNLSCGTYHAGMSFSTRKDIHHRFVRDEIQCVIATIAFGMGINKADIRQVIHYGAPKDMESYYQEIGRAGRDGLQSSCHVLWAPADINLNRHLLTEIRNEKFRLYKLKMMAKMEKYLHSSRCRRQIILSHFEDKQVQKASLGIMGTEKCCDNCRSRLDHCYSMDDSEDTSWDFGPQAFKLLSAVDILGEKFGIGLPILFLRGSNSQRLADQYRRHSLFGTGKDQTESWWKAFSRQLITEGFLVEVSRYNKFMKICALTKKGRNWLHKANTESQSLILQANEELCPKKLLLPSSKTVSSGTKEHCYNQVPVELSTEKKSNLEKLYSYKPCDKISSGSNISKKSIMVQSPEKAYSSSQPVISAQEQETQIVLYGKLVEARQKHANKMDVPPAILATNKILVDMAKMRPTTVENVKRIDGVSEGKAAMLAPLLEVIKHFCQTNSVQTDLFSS

On to `C=CC(=O)Nc1ccccc1-c1c(CC)cc2n(CC(=O)Nc3ccc(C(F)(F)F)cc3)c3ccccc3n2c1=O` [Example 26, N-(2-(3-Ethyl-1-oxo-5-(2-oxo-2-((4-(trifluoromethyl)phenyl)amino)ethyl)-1,5-dihydrobenzo[4,5]imidazo[1,2-a]pyridin-2-yl)phenyl)acrylamide], for which the pIC50 (as a rule, −log10 of the IC50, conventionally taken in molar units) was 6.30 to 7.00 in test [1] and greater than 7.00 in test [2].
The corresponding values for `C=CC(=O)Nc1ccccc1-c1c(CC)nc2n(CC(=O)Nc3ccc(C(F)(F)F)cc3)c3c(n2c1=O)CCCC3` [Example 22, N-(2-(2-ethyl-4-oxo-10-(2-oxo-2-((4-(trifluoromethyl)phenyl)amino)ethyl)-4,6,7,8,9,10-hexahydrobenzo[4,5]imidazo[1,2-a]pyrimidin-3-yl)phenyl)acrylamide] are greater than 7.00 and greater than 7.00.
The corresponding values for `C=CC(=O)Nc1ccccc1-c1c(CC)nc2n(CC(=O)Nc3ccccc3)c3ccccc3n2c1=O` [Example 2, N-(2-(2-Ethyl-4-oxo-10-(2-oxo-2-(phenylamino)ethyl)-4,10-dihydrobenzo[4,5]imidazo[1,2-a]pyrimidin-3-yl)phenyl)acrylamide] are greater than 7.00 and greater than 7.00.
The corresponding values for `C=CC(=O)Nc1ccccc1-c1c(CC)nc2n(CC(=O)Nc3ccc(CC)cc3)c3ccccc3n2c1=O` [Example 5, N-(2-(2-Ethyl-10-(2-((4-ethylphenyl)amino)-2-oxoethyl)-4-oxo-4,10-dihydrobenzo[4,5]imidazo[1,2-a]pyrimidin-3-yl)phenyl)acrylamide] are greater than 7.00 and greater than 7.00.
As to `C=CC(=O)Nc1ccccc1-c1c(CC)nc2n(CC(=O)Nc3ccc(C(F)(F)F)cc3)c3ccccc3n2c1=O` [Example 3, N-(2-(2-Ethyl-4-oxo-10-(2-oxo-2-((4-(trifluoromethyl)phenyl)amino)ethyl)-4,10-dihydrobenzo[4,5]imidazo[1,2-a]pyrimidin-3-yl)phenyl)acrylamide], the pIC50 in test [1] and in test [2] was greater than 7.00 throughout.
For the compound `C=CC(=O)Nc1ccccc1-c1c(CC)nc2n(CC(=O)Nc3ccc(F)c(F)c3)c3ccccc3n2c1=O` [Example 8, N-(2-(10-(2-((3,4-Difluorophenyl)amino)-2-oxoethyl)-2-ethyl-4-oxo-4,10-dihydrobenzo[4,5]imidazo[1,2-a]pyrimidin-3-yl)phenyl)acrylamide], the pIC50 in test [1] and in test [2] was greater than 7.00 in each case.
Consider `C=CC(=O)Nc1ccccc1-c1c(CC)nc2n(CC(=O)NC3CCCCC3)c3ccccc3n2c1=O` [Example 10, N-(2-(10-(2-(Cyclohexylamino)-2-oxoethyl)-2-ethyl-4-oxo-4,10-dihydrobenzo[4,5]imidazo[1,2-a]pyrimidin-3-yl)phenyl)acrylamide], for which the negative-log IC50 (pIC50) in test [1] and in test [2] was 5.30 to 6.00 in each case.
`C=CC(=O)Nc1ccccc1-c1c(CC)nc2n(CC(=O)Nc3ccc(F)cc3C)c3ccccc3n2c1=O` [Example 9, N-(2-(2-Ethyl-10-(2-((4-fluoro-2-methylphenyl)amino)-2-oxoethyl)-4-oxo-4,10-dihydrobenzo[4,5]imidazo[1,2-a]pyrimidin-3-yl)phenyl)acrylamide]: the pIC50 in test [1] and in test [2] was greater than 7.00 in each case.
With `C=CC(=O)Nc1cc(C#N)ccc1-c1c(CC)nc2n(CC(=O)Nc3ccc(C(F)(F)F)cc3)c3ccccc3n2c1=O` [Example 15, N-(5-Cyano-2-(2-ethyl-4-oxo-10-(2-oxo-2-((4-(trifluoromethyl)phenyl)amino)ethyl)-4,10-dihydrobenzo[4,5]imidazo[1,2-a]pyrimidin-3-yl)phenyl)acrylamide], the pIC50 in test [1] and in test [2] was greater than 7.00 in each case.
With `C=CC(=O)Nc1ccccc1-c1c(CC)nc2n(CC(=O)Nc3ccc(F)cc3Cl)c3ccccc3n2c1=O` [Example 6, N-(2-(10-(2-((2-Chloro-4-fluorophenyl)amino)-2-oxoethyl)-2-ethyl-4-oxo-4,10-dihydrobenzo[4,5]imidazo[1,2-a]pyrimidin-3-yl)phenyl)acrylamide], the negative logarithm of the IC50 (pIC50) in test [1] and in test [2] was greater than 7.00 in each case.
As for `C=CC(=O)Nc1nn(C)cc1-c1c(CC)nc2n(CC(=O)Nc3ccc(C(F)(F)F)cc3)c3ccccc3n2c1=O` [Example 16, N-(4-(2-Ethyl-4-oxo-10-(2-oxo-2-((4-(trifluoromethyl)phenyl)amino)ethyl)-4,10-dihydrobenzo[4,5]imidazo[1,2-a]pyrimidin-3-yl)-1-methyl-1H-pyrazol-3-yl)acrylamide], the pIC50 was 5.30 to 6.00 in test [1] and 4.70 to 5.30 in test [2].
The corresponding values for `C=CC(=O)Nc1ccccc1-c1c(CC)nc2n(CC(=O)Nc3ccc(F)cc3)c3cc(C)c(C)cc3n2c1=O` [Example 18, N-(2-(2-Ethyl-10-(2-((4-fluorophenyl)amino)-2-oxoethyl)-7,8-dimethyl-4-oxo-4,10-dihydrobenzo[4,5]imidazo[1,2-a]pyrimidin-3-yl)phenyl)acrylamide] are 5.30 to 6.00 and 4.70 to 5.30.
For the compound `C=CC(=O)Nc1ccccc1-c1c(CC)nc2n(CC(=O)Nc3ccc(F)cc3)c3ccccc3n2c1=O` [Example 1, N-(2-(2-Ethyl-10-(2-((4-fluorophenyl)amino)-2-oxoethyl)-4-oxo-4,10-dihydrobenzo[4,5]imidazo[1,2-a]pyrimidin-3-yl)phenyl)acrylamide], the negative-log IC50 (pIC50) in test [1] and in test [2] was greater than 7.00 in each case.
With `C=CC(=O)Nc1ccc(C(=O)N2CC3CC3(O)C2)cc1-c1c(CC)nc2n(CC(=O)Nc3ccc(F)cc3)c3ccccc3n2c1=O` (stereo not drawn) [Example 14, N-(2-(2-Ethyl-10-(2-((4-fluorophenyl)amino)-2-oxoethyl)-4-oxo-4,10-dihydrobenzo[4,5]imidazo[1,2-a]pyrimidin-3-yl)-4-(1-hydroxy-3-azabicyclo[3.1.0]hexane-3-carbonyl)phenyl) acrylamide], the negative logarithm of the IC50 (pIC50) in test [1] and in test [2] was 6.30 to 7.00 throughout.
In the case of `C=CC(=O)Nc1ccc(C(=O)NCCOC)cc1-c1c(CC)nc2n(CC(=O)Nc3ccc(F)cc3)c3ccccc3n2c1=O` [Example 13, 4-Acrylamido-3-(2-ethyl-10-(2-((4-fluorophenyl)amino)-2-oxoethyl)-4-oxo-4,10-dihydrobenzo[4,5]imidazo[1,2-a]pyrimidin-3-yl)-N-(2-methoxyethyl) benzamide], the pIC50 in test [1] and in test [2] was 6.30 to 7.00 throughout.
